Results taken from patent US10695341B2, “Compositions and methods for treating endometriosis” (UNIVERSITY OF SOUTH FLORIDA, priority 2014, dated 2020).

Experiments:
[1] = test system: Life-extended endometriotic (IE) cells; experiment: Crystal violet growth/survival of life-extended endometriotic (IE) cells treated with chloroquine; format: cell-based, human; settings: 25 μM chloroquine, up to about 96 hours, crystal violet absorbance
Procedure: Life-extended endometriotic (IE) cells were treated with 25 μM chloroquine for up to about 96 hours. Cells were then stained with crystal violet and measured for overall growth at an absorbance of […], using a Bioteck plate reader.

[2] = test system: LC3-II; experiment: LC3-II levels in IE cells after chloroquine; format: cell-based, human; settings: chloroquine treatment

For `CCN(CC)CCCC(C)Nc1ccnc2cc(Cl)ccc12` (centres unmarked) [chloroquine], the cellular survival [1] was “dramatically inhibited” and the LC3-II levels [2] was “marked increase”.
